Measured values published in patent US20220088024A1, “METHODS FOR TREATING CANCER USING TOZADENANT” (Biotie Therapies, Inc., priority 2018, published 2022).
Values joined by “and” are separate entries in the source; they are usually repeats but may differ in a detail not shown here. Identical values can stand only once.

Key:
[1] = tested on: CT26 colon carcinoma tumor; assay: Example 4: anti-tumor responses of SYN-115 in the CT26 tumor mouse model (tumor area, survival); format: in vivo, BALB/c mice; design: key: tumor area, width*length, in mm^2
Protocol: The BALB/c mouse colon carcinoma cell line CT26 was cultured in RPMI supplemented with 10% FCS, GlutaMAX, and penicillin/streptomycin. Tumor cells are periodically verified to be Mycoplasma negative by the Victorian Infectious Diseases References Lab (Melbourne, VIC, Australia) by PCR analysis. 1×10^5 cells were resuspended in PBS and injected s.c. into BALB/c mice in a 100 μL volume. At day 9, tumors were measured and mice were randomized into distinct treatment groups to ensure that each group had tumors of similar size at the onset of treatment. Mice were treated i.p. at days 9, 13 and 17 with either isotype control (2A3; 200 μg/mouse) or anti-PD-1 mAb (RMP1-14, 200 μg/mouse) and where indicated, SYN-115 (Batch 71236AA002) at the indicated dose or vehicle control once-daily via oral gavage on days 14 to 29. To calculate a dose of SYN-115 mouse weight was estimated to be 20 g per mouse. Therefore, 100 mg/kg=2 mg per mouse in […] which is equivalent to 10 mg/ml. To make up 40 mL, 400 milligrams of SYN-115 was weighed and added into a Falcon tube, then 1 mL of Tween 80 was added and mixed into a paste and then 39 mL of 1% Methyl Cellulose was added. The solution was vortexed and then left on a rotating mixer for at least 2 hours and maintained at 4° C. Tumor measurements were taken 2-3 times per week. Tumor sizes were determined by width * length and mice were culled when tumors reached the ethical limit of 150 mm^2.

[2] = tested on: B16F10 CD73 melanoma metastases; assay: Example 9: number of lung tumor metastases in the B16F10 CD73 tumor mouse model; format: in vivo, C57/BL6 mice (A2A-/- or Wild-Type)
Protocol: The C57/BL6 mouse melanoma cell line B16F10 CD73 was cultured in DMEM supplemented with 10% FCS, GlutaMAX, and penicillin/streptomycin. Tumor cells are periodically verified to be Mycoplasma negative by the Victorian Infectious Diseases References
Lab (Melbourne, VIC, Australia) by PCR analysis. 2×10^5 cells were resuspended in PBS and injected i.v. into C57/BL6 mice (A2A^−/− or Wild-Type) in a 200 μL volume. At day 14 lungs were excised and the number of metastases counted under the dissecting microscope. Mice were dosed with either SYN-115 (Batch 71236AA002) at 100 mg/kg or vehicle control once-daily via oral gavage on days 0 to 13. To calculate a dose of SYN-115 mouse weight was estimated to be 20 g per mouse. Therefore, 100 mg/kg=2 mg per mouse in 200 μL, which is equivalent to 10 mg/ml. To make up 40 mL, 400 milligrams of SYN-115 was weighed and added into a Falcon tube, then 1 mL of Tween 80 was added and mixed into a paste and then 39 mL of 1% Methyl Cellulose was added. The solution was vortexed and then left on a rotating mixer for at least 2 hours and maintained at 4° C.

[3] = tested on: AT-3ova CD73+ tumour (mouse breast carcinoma cell line AT-3); assay: Example 2: anti-tumor responses of SYN-115 in the AT-3ova CD73+ tumour cell mouse model (tumor area); format: in vivo, C57/BL6 mice
Protocol: The C57BL/6 mouse breast carcinoma cell line AT-3 was obtained from Dr. Trina Stewart (Griffith University, Nathan, QLD, Australia. Tumor cell lines were transduced to express chicken ovalbumin peptide and CD73 as previously described (1, 2, 3). Tumor cells are periodically verified to be Mycoplasma negative by the Victorian Infectious Diseases References Lab (Melbourne, VIC, Australia) by PCR analysis. Tumor cells were grown in DMEM supplemented with 10% FCS, GlutaMAX, and penicillin/streptomycin. 5×10^5 cells were resuspended in PBS and injected s.c. into C57/BL6 mice in a 100 μL volume. At day 14 tumors were measured and mice were randomized into distinct treatment groups to ensure that each group had tumors of similar size at the onset of treatment. Mice were treated i.p. at days 14, 18, 22, and 26 with either isotype control (2A3; 200 μg/mouse) or anti-PD-1 mAb (RMP1-14, 200 μg/mouse) and where indicated, SYN-115 (Batch 71236AA002) at the indicated dose or vehicle control once-daily via oral gavage on days 14 to 29. To calculate a dose of SYN-115 mouse weight was estimated to be 20 g per mouse. Therefore, 100 mg/kg=2 mg per mouse in 200 μL, which is equivalent to 10 mg/ml. To make up 40 mL, 400 milligrams of SYN-115 was weighed and added into a Falcon tube, then 1 mL of Tween 80 was added and mixed into a paste and then 39 mL of 1% Methyl Cellulose was added. The solution was vortexed and then left on rotating mixer for at least 2 hours and maintained at 4° C. Tumor measurements were taken 2-3 times per week. Tumor sizes were determined by width * length and mice were culled when tumors reached the ethical limit of 150 mm^2.

COc1ccc(N2CCOCC2)c2sc(NC(=O)N3CCC(C)(O)CC3)nc12 [SYN-115, 4-hydroxy-4-methyl-piperidine-1-carboxylic acid (4-methoxy-7-morpholin-4-yl-benzothiazol-2-yl)-amide]
Raw Tumor Measurements ([1]; 2A3 (200 μg/mouse)+SYN-115 (30 mg/kg), Day 0): 12.71 and 14.85 and 16.32 and 18.92 and 20.16 and 22.36 | Raw Tumor Measurements ([1]; 2A3 (200 μg/mouse)+SYN-115 (30 mg/kg), Day 4): 37.62 and 42.12 and 40.7 and 53.2 and 38.4 and 52.56 | Raw Tumor Measurements ([1]; 2A3 (200 μg/mouse)+SYN-115 (30 mg/kg), Day 13): 146.41 and 150.7 and 93.93 and 186.83 | Raw Tumor Measurements ([1]; 2A3 (200 μg/mouse)+SYN-115 (30 mg/kg), Day 15): 188.94 and 100.8 | Raw Tumor Measurements ([1]; 2A3 (200 μg/mouse)+SYN-115 (30 mg/kg), Day 19): 186.12 | Raw Tumor Measurements ([1]; 2A3 (200 μg/mouse)+SYN-115 (100 mg/kg), Day 0): 12.76 and 14.8 and 17 and 18.9 and 20.5 and 21.12 | Raw Tumor Measurements ([1]; 2A3 (200 μg/mouse)+SYN-115 (100 mg/kg), Day 4): 44.73 and 41.31 and 42.7 and 41.76 and 49.64 and 25.85 | Raw Tumor Measurements ([1]; 2A3 (200 μg/mouse)+SYN-115 (100 mg/kg), Day 6): 53.4 and 59.78 and 73.04 and 58.32 and 71.76 and 42.92 | Raw Tumor Measurements ([1]; 2A3 (200 μg/mouse)+SYN-115 (100 mg/kg), Day 8): 66.75 and 90.2 and 89 and 87.4 and 94.08 and 51.84 | Raw Tumor Measurements ([1]; 2A3 (200 μg/mouse)+SYN-115 (100 mg/kg), Day 13): 187.53 and 175.56 and 213.12 and 203.68 and 164.56 and 110.4 | Raw Tumor Measurements ([1]; 2A3 (200 μg/mouse)+SYN-115 (100 mg/kg), Day 15): 151.42 | Raw Tumor Measurements ([1]; Anti-PD-1 (200 ug)+SYN-115 (30 mg/kg), Day 22): 108 and 136.64 and 120.64 | Raw Tumor Measurements ([1]; Anti-PD-1 (200 ug)+SYN-115 (30 mg/kg), Day 25): 160.95 and 151.2 and 159.6 | Number of Tumor Metastases (lung), individual mice ([2]; 100 mg/kg once-daily oral gavage days 0 to 13, counted day 14, Batch 71236AA002): 53 and 108 and 107 and 61 and 72 and 64 and 40 and 24 and 56 and 82 | Efficacy on tumor metastases ([2]; SYN-115 100 mg/kg once-daily oral, days 0 to 13): No efficacy | Tumor size (width * length) ([3]; 2A3 (200 μg/Mouse)+SYN-115 (100 mg/kg), Day 39): 123.2 mm^2 and 91.35 mm^2 and 103.88 mm^2 | Tumor size (width * length) ([3]; 2A3 (200 μg/Mouse)+SYN-115 (100 mg/kg), Day 45): 143 mm^2 | Tumor size (width * length) ([3]; Anti-PD-1 (200 ug)+SYN-115 (10 mg/kg), Day 50): 48.38 mm^2 and 66.22 mm^2 | Tumor size (width * length) ([3]; Anti-PD-1 (200 ug)+SYN-115 (10 mg/kg), Day 53): 53.6 mm^2 and 83.72 mm^2 | Tumor size (width * length) ([3]; Anti-PD-1 (200 ug)+SYN-115 (10 mg/kg), Day 57): 63.19 mm^2 and 81.6 mm^2 | Tumor size (width * length) ([3]; Anti-PD-1 (200 ug)+SYN-115 (10 mg/kg), Day 60): 72.72 mm^2 and 80.04 mm^2 | Tumor size (width * length) ([3]; Anti-PD-1 (200 ug)+SYN-115 (10 mg/kg), Day 64): 91.64 mm^2 and 104.86 mm^2 | Tumor size (width * length) ([3]; Anti-PD-1 (200 ug)+SYN-115 (10 mg/kg), Day 68): 121.26 mm^2 | Tumor size (width * length) ([3]; Anti-PD-1 (200 ug)+SYN-115 (30 mg/kg), Day 57): 75.24 mm^2 and 44.22 mm^2 | Tumor size (width * length) ([3]; Anti-PD-1 (200 ug)+SYN-115 (30 mg/kg), Day 60): 89.25 mm^2 and 48.28 mm^2 | Tumor size (width * length) ([3]; Anti-PD-1 (200 ug)+SYN-115 (30 mg/kg), Day 64): 107.1 mm^2 and 69.52 mm^2 | Tumor size (width * length) ([3]; Anti-PD-1 (200 ug)+SYN-115 (30 mg/kg), Day 68): 92.22 mm^2 | Tumor size (width * length) ([3]; Anti-PD-1 (200 ug)+SYN-115 (100 mg/kg), Day 45): 101 mm^2 and 129.71 mm^2 and 75.84 mm^2 | Tumor size (width * length) ([3]; Anti-PD-1 (200 ug)+SYN-115 (100 mg/kg), Day 50): 136.4 mm^2
